According to patent publication US8362031B2, “Lonidamine analogues and treatment of polycystic kidney disease” (University of Kansas, priority 2004, dated 2013):

What was measured:
fruitfly = experiment: Reproduction of fruitfly; type: in vivo, Drosophila (fruitfly)
Excerpt: Several known Hsp90 inhibitors are listed above. With regard to HSP90, RC-MC-110 likely a novel inhibitor of the N-terminal ATP binding site or a novel site on Hsp90. It should be noted that mutants of Hsp90 in Drosophila (fruitfly) produce sterile males and females. […] Genetics. 1999 March; 151(3):1065-79.

male rats = experiment: Fertility trials following oral administration (challenge mating); type: in vivo, rat; details: for MALES MATED/MALES FERTILE: Table 9C
Description: The following table illustrates the results of a single oral does of 6 mg/kg of RC-MC-110 orally to male rats. […] The ethyl alcohol was evaporated 10% prior to administration. The “embryos normal” and “embryos abnormal” represents the mean number of embryos per pregnant female. […]
The following table illustrates the results of a single oral does of four different doses of RC-MC-110 orally to male rats.

[1] = Table 9A, seven consecutive daily oral doses of 6 mg/day, week 1
[2] = Table 9A, seven consecutive daily oral doses of 6 mg/day, week 2
[3] = Table 9A, seven consecutive daily oral doses of 6 mg/day, week 3
[4] = Table 9A, seven consecutive daily oral doses of 6 mg/day, week 4
[5] = Table 9A, seven consecutive daily oral doses of 6 mg/day, week 5
[6] = Table 9A, seven consecutive daily oral doses of 6 mg/day, week 6
[7] = Table 9A, seven consecutive daily oral doses of 6 mg/day, week 7
[8] = Table 9A, seven consecutive daily oral doses of 6 mg/day, week 8
[9] = Table 9A, seven consecutive daily oral doses of 6 mg/day, week 9
[10] = Table 9A, seven consecutive daily oral doses of 6 mg/day, week 10
[11] = Table 9A, seven consecutive daily oral doses of 6 mg/day, week 12
[12] = Table 9A, seven consecutive daily oral doses of 6 mg/day, week 13
[13] = Table 9A, seven consecutive daily oral doses of 6 mg/day, week 14
[14] = Table 9A, seven consecutive daily oral doses of 6 mg/day, week 18
[15] = Table 9B, single oral dose of 6 mg/kg, week 1
[16] = Table 9B, single oral dose of 6 mg/kg, week 2
[17] = Table 9B, single oral dose of 6 mg/kg, week 3
[18] = Table 9B, single oral dose of 6 mg/kg, week 4
[19] = Table 9B, single oral dose of 6 mg/kg, week 5
[20] = Table 9B, single oral dose of 6 mg/kg, week 6
[21] = Table 9B, single oral dose of 6 mg/kg, week 7
[22] = Table 9B, single oral dose of 6 mg/kg, week 8
[23] = Table 9B, single oral dose of 6 mg/kg, week 9
[24] = Table 9B, single oral dose of 6 mg/kg, week 10
[25] = Table 9B, single oral dose of 6 mg/kg, week 12
[26] = Table 9B, single oral dose of 6 mg/kg, week 13
[27] = Table 9B, single oral dose of 6 mg/kg, week 14
[28] = Table 9B, single oral dose of 6 mg/kg, week 18
[29] = Table 9B, single oral dose of 6 mg/kg, week 26

O=C(O)/C=C/c1nn(Cc2ccc(Cl)cc2Cl)c2cc(C(F)(F)F)ccc12 [RC-MC-110, trans 3-[1-(2,4-dichlorobenzyl)-6-trifluoromethyl-1H-indazol-3-yl]-acrylic acid]
1: Embryos abnormal (mean number per pregnant female) (male rats; [9]) | Males fertile (male rats; Table 9A, seven consecutive daily oral doses of 6 mg/day, week 9, 7 males mated) | Males fertile (male rats; Table 9A, seven consecutive daily oral doses of 6 mg/day, week 10, 7 males mated) | Embryos abnormal (mean number per pregnant female) (male rats; [20]) | Males fertile (male rats; Table 9B, single oral dose of 6 mg/kg, week 6, 7 males mated) | Embryos abnormal (mean number per pregnant female) (male rats; [22]) | Embryos abnormal (mean number per pregnant female) (male rats; [24])
0.2: Embryos abnormal (mean number per pregnant female) (male rats; [1]) | Embryos abnormal (mean number per pregnant female) (male rats; [15])
6/2: MALES MATED/MALES FERTILE (male rats; single oral dose 3.0 MG/KG in 10% ethyl alcohol and sesame oil, week 4)
0.1: Embryos abnormal (mean number per pregnant female) (male rats; [25])
9: Embryos normal (mean number per pregnant female) (male rats; [9])
0.3: Embryos abnormal (mean number per pregnant female) (male rats; [2]) | Embryos abnormal (mean number per pregnant female) (male rats; [11]) | Embryos abnormal (mean number per pregnant female) (male rats; [12]) | Embryos abnormal (mean number per pregnant female) (male rats; [16])
7/0: MALES MATED/MALES FERTILE (male rats; single oral dose 6.0 MG/KG in 10% ethyl alcohol and sesame oil, week 4) | MALES MATED/MALES FERTILE (male rats; single oral dose 6.0 MG/KG in 10% ethyl alcohol and sesame oil, week 5)
3: Males fertile (male rats; Table 9A, seven consecutive daily oral doses of 6 mg/day, week 4, 7 males mated) | Males fertile (male rats; Table 9B, single oral dose of 6 mg/kg, week 8, 7 males mated) | Males fertile (male rats; Table 9B, single oral dose of 6 mg/kg, week 10, 7 males mated) | Males fertile (male rats; Table 9B, single oral dose of 6 mg/kg, week 13, 7 males mated) | Males fertile (male rats; Table 9B, single oral dose of 6 mg/kg, week 26, 7 males mated)
14: Embryos normal (mean number per pregnant female) (male rats; [11]) | Embryos normal (mean number per pregnant female) (male rats; [13]) | Embryos normal (mean number per pregnant female) (male rats; [14]) | Embryos normal (mean number per pregnant female) (male rats; [25]) | Embryos normal (mean number per pregnant female) (male rats; [26]) | Embryos normal (mean number per pregnant female) (male rats; [28])
7/7: MALES MATED/MALES FERTILE (male rats; single oral dose 6.0 MG/KG in 10% ethyl alcohol and sesame oil, week 1) | MALES MATED/MALES FERTILE (male rats; single oral dose 6.0 MG/KG in 10% ethyl alcohol and sesame oil, week 2)
0: Embryos abnormal (mean number per pregnant female) (male rats; [3]) | Embryos abnormal (mean number per pregnant female) (male rats; [5]) | Embryos normal (mean number per pregnant female) (male rats; [5]) | Males fertile (male rats; Table 9A, seven consecutive daily oral doses of 6 mg/day, week 5, 7 males mated) | Embryos abnormal (mean number per pregnant female) (male rats; [6]) | Embryos normal (mean number per pregnant female) (male rats; [6]) | Males fertile (male rats; Table 9A, seven consecutive daily oral doses of 6 mg/day, week 6, 7 males mated) | Embryos abnormal (mean number per pregnant female) (male rats; [7]) | Embryos normal (mean number per pregnant female) (male rats; [7]) | Males fertile (male rats; Table 9A, seven consecutive daily oral doses of 6 mg/day, week 7, 7 males mated) | Embryos abnormal (mean number per pregnant female) (male rats; [8]) | Embryos normal (mean number per pregnant female) (male rats; [8]) | Males fertile (male rats; Table 9A, seven consecutive daily oral doses of 6 mg/day, week 8, 6 males mated) | Embryos abnormal (mean number per pregnant female) (male rats; [10]) | Embryos abnormal (mean number per pregnant female) (male rats; [13]) | Embryos abnormal (mean number per pregnant female) (male rats; [14]) | Embryos abnormal (mean number per pregnant female) (male rats; [18]) | Embryos normal (mean number per pregnant female) (male rats; [18]) | Males fertile (male rats; Table 9B, single oral dose of 6 mg/kg, week 4, 7 males mated) | Embryos abnormal (mean number per pregnant female) (male rats; [19]) | Embryos normal (mean number per pregnant female) (male rats; [19]) | Males fertile (male rats; Table 9B, single oral dose of 6 mg/kg, week 5, 7 males mated) | Embryos abnormal (mean number per pregnant female) (male rats; [21])
0.6: Embryos abnormal (mean number per pregnant female) (male rats; [29])
11: Embryos normal (mean number per pregnant female) (male rats; [24]) | Embryos normal (mean number per pregnant female) (male rats; [27])
7/2: MALES MATED/MALES FERTILE (male rats; single oral dose 6.0 MG/KG in 10% ethyl alcohol and sesame oil, week 3) | MALES MATED/MALES FERTILE (male rats; single oral dose 6.0 MG/KG in 10% ethyl alcohol and sesame oil, week 7)
7/4: MALES MATED/MALES FERTILE (male rats; single oral dose 6.0 MG/KG in 10% ethyl alcohol and sesame oil, week 9) | MALES MATED/MALES FERTILE (male rats; single oral dose 6.0 MG/KG in 10% ethyl alcohol and sesame oil, week 12) | MALES MATED/MALES FERTILE (male rats; single oral dose 6.0 MG/KG in 10% ethyl alcohol and sesame oil, week 14)
2: Males fertile (male rats; Table 9A, seven consecutive daily oral doses of 6 mg/day, week 3, 7 males mated) | Embryos normal (mean number per pregnant female) (male rats; [10]) | Males fertile (male rats; Table 9A, seven consecutive daily oral doses of 6 mg/day, week 12, 7 males mated) | Males fertile (male rats; Table 9A, seven consecutive daily oral doses of 6 mg/day, week 13, 7 males mated) | Males fertile (male rats; Table 9A, seven consecutive daily oral doses of 6 mg/day, week 14, 7 males mated) | Males fertile (male rats; Table 9A, seven consecutive daily oral doses of 6 mg/day, week 18, 7 males mated) | Embryos abnormal (mean number per pregnant female) (male rats; [17]) | Males fertile (male rats; Table 9B, single oral dose of 6 mg/kg, week 3, 7 males mated) | Males fertile (male rats; Table 9B, single oral dose of 6 mg/kg, week 7, 7 males mated)
4: Males fertile (male rats; Table 9B, single oral dose of 6 mg/kg, week 9, 7 males mated) | Males fertile (male rats; Table 9B, single oral dose of 6 mg/kg, week 12, 7 males mated) | Males fertile (male rats; Table 9B, single oral dose of 6 mg/kg, week 14, 7 males mated) | Males fertile (male rats; Table 9B, single oral dose of 6 mg/kg, week 18, 7 males mated)
inhibited reproduction: Reproduction of fruitfly (fruitfly; provided to a fruitfly)
6/5: MALES MATED/MALES FERTILE (male rats; single oral dose 1.5 MG/KG in 10% ethyl alcohol and sesame oil, week 1) | MALES MATED/MALES FERTILE (male rats; single oral dose 1.5 MG/KG in 10% ethyl alcohol and sesame oil, week 3) | MALES MATED/MALES FERTILE (male rats; single oral dose 1.5 MG/KG in 10% ethyl alcohol and sesame oil, week 4)
6/3: MALES MATED/MALES FERTILE (male rats; single oral dose 3.0 MG/KG in 10% ethyl alcohol and sesame oil, week 3)
10: Embryos normal (mean number per pregnant female) (male rats; [20])
0.5: Embryos abnormal (mean number per pregnant female) (male rats; [4])
6: Embryos normal (mean number per pregnant female) (male rats; [17])
0.4: Embryos abnormal (mean number per pregnant female) (male rats; [23])
13: Embryos normal (mean number per pregnant female) (male rats; [2]) | Embryos normal (mean number per pregnant female) (male rats; [21]) | Embryos normal (mean number per pregnant female) (male rats; [29])
7/3: MALES MATED/MALES FERTILE (male rats; single oral dose 6.0 MG/KG in 10% ethyl alcohol and sesame oil, week 8) | MALES MATED/MALES FERTILE (male rats; single oral dose 6.0 MG/KG in 10% ethyl alcohol and sesame oil, week 10) | MALES MATED/MALES FERTILE (male rats; single oral dose 6.0 MG/KG in 10% ethyl alcohol and sesame oil, week 13)
7: Males fertile (male rats; Table 9A, seven consecutive daily oral doses of 6 mg/day, week 1, 7 males mated) | Males fertile (male rats; Table 9A, seven consecutive daily oral doses of 6 mg/day, week 2, 7 males mated) | Embryos normal (mean number per pregnant female) (male rats; [3]) | Embryos normal (mean number per pregnant female) (male rats; [4]) | Males fertile (male rats; Table 9B, single oral dose of 6 mg/kg, week 1, 7 males mated) | Males fertile (male rats; Table 9B, single oral dose of 6 mg/kg, week 2, 7 males mated)
15: Embryos normal (mean number per pregnant female) (male rats; [1]) | Embryos normal (mean number per pregnant female) (male rats; [12]) | Embryos normal (mean number per pregnant female) (male rats; [15])
0.7: Embryos abnormal (mean number per pregnant female) (male rats; [27]) | Embryos abnormal (mean number per pregnant female) (male rats; [28])
6/6: MALES MATED/MALES FERTILE (male rats; single oral dose 0.75 MG/KG in 10% ethyl alcohol and sesame oil, week 1) | MALES MATED/MALES FERTILE (male rats; single oral dose 0.75 MG/KG in 10% ethyl alcohol and sesame oil, week 3) | MALES MATED/MALES FERTILE (male rats; single oral dose 0.75 MG/KG in 10% ethyl alcohol and sesame oil, week 4) | MALES MATED/MALES FERTILE (male rats; single oral dose 0.75 MG/KG in 10% ethyl alcohol and sesame oil, week 5) | MALES MATED/MALES FERTILE (male rats; single oral dose 0.75 MG/KG in 10% ethyl alcohol and sesame oil, week 6) | MALES MATED/MALES FERTILE (male rats; single oral dose 0.75 MG/KG in 10% ethyl alcohol and sesame oil, week 7) | MALES MATED/MALES FERTILE (male rats; single oral dose 0.75 MG/KG in 10% ethyl alcohol and sesame oil, week 8) | MALES MATED/MALES FERTILE (male rats; single oral dose 1.5 MG/KG in 10% ethyl alcohol and sesame oil, week 2) | MALES MATED/MALES FERTILE (male rats; single oral dose 1.5 MG/KG in 10% ethyl alcohol and sesame oil, week 5) | MALES MATED/MALES FERTILE (male rats; single oral dose 1.5 MG/KG in 10% ethyl alcohol and sesame oil, week 6) | MALES MATED/MALES FERTILE (male rats; single oral dose 1.5 MG/KG in 10% ethyl alcohol and sesame oil, week 7) | MALES MATED/MALES FERTILE (male rats; single oral dose 1.5 MG/KG in 10% ethyl alcohol and sesame oil, week 8) | MALES MATED/MALES FERTILE (male rats; single oral dose 1.5 MG/KG in 10% ethyl alcohol and sesame oil, week 9) | MALES MATED/MALES FERTILE (male rats; single oral dose 3.0 MG/KG in 10% ethyl alcohol and sesame oil, week 1) | MALES MATED/MALES FERTILE (male rats; single oral dose 3.0 MG/KG in 10% ethyl alcohol and sesame oil, week 2) | MALES MATED/MALES FERTILE (male rats; single oral dose 3.0 MG/KG in 10% ethyl alcohol and sesame oil, week 5) | MALES MATED/MALES FERTILE (male rats; single oral dose 3.0 MG/KG in 10% ethyl alcohol and sesame oil, week 6) | MALES MATED/MALES FERTILE (male rats; single oral dose 3.0 MG/KG in 10% ethyl alcohol and sesame oil, week 7) | MALES MATED/MALES FERTILE (male rats; single oral dose 3.0 MG/KG in 10% ethyl alcohol and sesame oil, week 8) | MALES MATED/MALES FERTILE (male rats; single oral dose 3.0 MG/KG in 10% ethyl alcohol and sesame oil, week 9)
more potent than lonidamine: Potency on fruitfly reproduction, compared with lonidamine (fruitfly; in vivo)
8/8: MALES MATED/MALES FERTILE (male rats; single oral dose 0.75 MG/KG in 10% ethyl alcohol and sesame oil, week 2)
12: Embryos normal (mean number per pregnant female) (male rats; [16]) | Embryos normal (mean number per pregnant female) (male rats; [22]) | Embryos normal (mean number per pregnant female) (male rats; [23])
7/1: MALES MATED/MALES FERTILE (male rats; single oral dose 6.0 MG/KG in 10% ethyl alcohol and sesame oil, week 6)
1.0: Embryos abnormal (mean number per pregnant female) (male rats; [26])
